From patent US20250179478A1, “FLUORESCENT METABOLICALLY INCORPORATED NUCLEOSIDES FOR LIVE CELL IMAGING OF RN” (The Trustees of Princeton University, priority 2022, published 2025) come the findings set out here.

Series [1] can be described thus: Photophysical properties of fluorescent nucleosides (extinction coefficient, quantum yield). The series is classed as physicochemical.
Series [2] concerns the target T1, UCK2 (Homo sapiens, UniProt Q9BZX2).
T1 sequence (Q9BZX2 1-261): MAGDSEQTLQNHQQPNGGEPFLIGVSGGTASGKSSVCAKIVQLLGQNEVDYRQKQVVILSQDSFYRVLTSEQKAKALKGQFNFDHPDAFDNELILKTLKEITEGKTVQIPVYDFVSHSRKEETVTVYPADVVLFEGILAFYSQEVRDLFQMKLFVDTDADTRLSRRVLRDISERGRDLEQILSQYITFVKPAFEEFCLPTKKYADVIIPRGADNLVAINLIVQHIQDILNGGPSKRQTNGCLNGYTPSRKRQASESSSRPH
The series is described as follows: HPLC-based in vitro phosphorylation by recombinant purified UCK2. The series is classed as biochemical. Conditions: even after extended reaction times. The text has this: To further understand the incorporation of bulky fluorescent nucleosides into cellular RNA and the involvement of UCK2 in this process, the phosphorylation of modified nucleosides by recombinant, purified UCK2 was studied using an HPLC-based in vitro assay.

Series [3] has as its system HeLa cells expressing ribonucleoside kinase UCK2 (WT or Y65G). Kind of series: Epifluorescence microscopy of fluorescent nucleoside incorporation in HeLa cells with inducible UCK2. The format is cell-based, human. Particulars: 500 μM, 12 hr, HeLa cells overexpressing WT or Y65G UCK2, DAPI filter set. The protocol:
The method may also include inducing 130 the inducible promoter to overexpress the WT or mutant ribonucleoside kinase UCK2. This may be accomplished by, e.g., exposing the cells to the inducing agent for an appropriate amount of time. In some examples disclosed herein, for nucleoside labeling experiments in Flp-In Hela cells overexpressing UCK2, HeLa cells were seeded at 0.4×10^6 cells per well in 35 mm glass bottom petri dishes. After 16 hours, cells were induced for 16 hours with 1 μg/mL tetracycline.
In some embodiments, the method may include exposing 140 the plurality of live cells to a first quantity of the fluorescent nucleoside for a first period of time. The first period of time is typically 1-24 hours, and may be, e.g., 6-12 hours. In some examples disclosed herein, after being exposed to tetracycline, the HeLa cells were treated with 500 μM of fluorescent nucleosides for 12 hours.
It was next evaluated whether the fluorescent nucleosides could be incorporated into living cells. For this purpose, HeLa cells expressing ribonucleoside kinase UCK2 under the control of a tetracycline-inducible promoter (i.e., Flp-In T-Rex system) were used. The incorporate was monitored using fluorescence microscopy and quantitative nucleoside LC-QQQ-MS. The T-Rex system provides a convenient method to analyze the effect of UCK2 expression on nucleoside incorporation. Previously, it has been shown that UCK2 is rate limiting for the metabolic incorporation of modified pyrimidines through salvage pathways.
(§1) To test nucleoside incorporation, HeLa cells were treated with 500 μM of each fluorescent nucleoside for 12 hr and then imaged cells by epifluorescence microscopy after washing out free nucleoside. A DAPI filter set (375 nm, 435 nm) was chosen due to its availability on most fluorescence microscopes and since the excitation and emission band pass wavelengths overlapped with the spectra of each of the synthetic nucleosides, although the degree of overlap varies considerably based upon the nucleoside structure. Further, it was tested whether induction of UCK2 expression (WT or Y65G mutant) affects incorporation levels. […] Fluorescence signal was concentrated in the nucleus, but was also found in the cytoplasm, consistent with RNA incorporation.
First, feeding was performed in the presence of actinomycin D (ActD), a potent inhibitor of RNA polymerase I and II. […] In addition, total cellular RNA was isolated and nucleoside LC-QQQ-MS was performed after digestion and dephosphorylation to nucleosides. […] This system should be suitable for live-cell imaging of the bulk RNA population.

In series [4] the test system is HeLa cells. The series is described as follows: Cytotoxicity seen during nucleoside labeling of HeLa cells. The series is classed as cell-based, human. Conditions: 500 μM, 12 hr. As to the method:
as §1

With `CCN(CC)c1ccc2c(c1)Nc1nc(=O)n([C@@H]3O[C@H](CO)[C@@H](O)[C@H]3O)cc1S2` [^DEAtC], in series [1] (free nucleoside, tC 513 nm in 1× PBS pH 7.4, DEAtC 493 nm, MeOtC 550 nm), the “fluorescence quantum yield Φem, free nucleoside” value is recorded as 0.006. The “fluorescence quantum yield Φem in matched duplex DNA / dsDNA” value in series [1] (tC 513 nm, DEAtC 500 nm, MeOtC 532 nm) is given as 0.12. For the same molecule, the “phosphorylation by UCK2, extended reaction times” value in series [2] is on record as “no phosphorylation”. Moreover, the fluorescent cellular labeling entry in series [3] is on record as “not observed”. Further, the cytotoxicity entry in series [4] is “significant cytotoxicity”.
